The values that follow come from patent publication US12617779B2, “Self degradation-type CDK9 inhibitor prodrug and liposome encapsulating same” (Sumitomo Pharma Co., Ltd., priority 2021, dated 2026).

Structures can show the parent of a compound that is named as a salt.

This data set in a line: Liposome encapsulation test, remote loading method (Experimental Example 4).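 On encapsulation efficiency: encapsulated compound as percent of compound amount introduced.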 In kind it is physicochemical. The note with it: for encapsulation rate, encapsulation efficiency and encapsulated compound content per 50 μmol of lipid: remote loading into liposomes. How it is done:
For Example 1, Example 2, Example 3, Example 4, Example 5, Example 6, Example 7, Example 8, Example 9, Example 10, Example 11, Example 12, Example 13, Example 14, Example 15, Example 16, Example 17 and Alvocidib, an encapsulation test in liposomes was performed using a remote loading method.
<Liposome Encapsulation Test of Example 1, Example 2, Example 5, Example 6, Example 9, Example 10, Example 11, Example 12, Example 13, Example 14, Example 15, and Example 16>
Hydrogenated soybean phosphatidylcholine (COATSOME NC-21E, manufactured by NOF CORPORATION, 7.77 g), cholesterol (manufactured by Sigma, 2.78 g) and distearoylphosphatidylethanolamine-methoxypolyethylene glycol 2000 (SUNBRIGHT DSPE-020CN, manufactured by NOF CORPORATION, 2.47 g) were dissolved in tert-butyl alcohol (720 mL) warmed to 65° C. The solution was placed in an eggplant flask and frozen in a dry ice-acetone bath, and then the tert-butyl alcohol was removed by evaporation under reduced pressure to give a lipid mixture.
To the above lipid mixture was added a 250 mM ammonium sulfate solution (240 mL), and the mixture was warmed to 65° C., and dispersed by a homogenizer (ULTRA-TURRAX, manufactured by IKA) to give a crude liposome dispersion. Then, the crude liposome dispersion was dispersed by a high pressure homogenizer (Nano-Mizer NM2, manufactured by YOSHIDA KIKAI CO., LTD.) at a pressure of 100 MPa to give liposomes with an average particle size (Z-average) of about 80 nm. The liposome outer solution was replaced with 10 mM L-histidine/10% sucrose solution (pH 6.5) using a dialysis cassette (Slide-A-Lyzer G2 Dialysis Cassettes 20K MWCO, manufactured by Thermo Scientific) to give an empty liposome solution. The solution was filtered through a 0.22 μm membrane filter, and a 10 mM L-histidine/10% sucrose solution (pH 6.5) was added thereto to adjust the total lipid concentration to 50 mM (50 μmol/mL). The lipid concentration was determined by quantitatively analyzing cholesterol using HPLC and calculating the total lipid concentration from the lipid mixing ratio. The amount for the above adjustment was increased or decreased as appropriate.
The compound (10 mg) was weighed, and the empty liposome solution (1 mL) with a total lipid concentration of 50 mM was added thereto. The solution was adjusted to pH 5 to 6 with 1 mol/L hydrochloric acid or 1 mol/L aqueous sodium hydroxide solution as necessary, warmed in a 65° C. water bath for 2 to 3 minutes, and ice-cooled. The mixture was centrifuged at 15,000×g for 5 minutes to precipitate and remove insoluble substances.
The liposome solution (100 μL) after removing insoluble substances was taken on an ultrafiltration filter (Amicon Ultra, 100K, 0.5 mL, manufactured by Merck) and centrifuged at 4° C., 15,000×g for 10 minutes. The compound concentrations in the liposome solution after removing insoluble substances and in the filtrate after ultrafiltration were determined by HPLC, and the encapsulation rate, encapsulation efficiency, and encapsulated compound content per 50 μmol of lipid were calculated by the following formula.
The measurement conditions for HPLC are as follows.
An empty liposome solution with a total lipid concentration of 75 mM was prepared by the same procedure as for the above example compound group. Each compound was weighed, and the empty liposome solution with a total lipid concentration of 75 mM was added thereto such that the compound concentration became 15 mg/mL. The solution was adjusted to pH 5 to 6 with 1 mol/L hydrochloric acid or 1 mol/L aqueous sodium hydroxide solution, warmed in a 65° C. water bath for 3 minutes, and ice-cooled. Hereafter, the encapsulation rate and encapsulation efficiency were calculated by the same procedure as for the above example compound group. The encapsulated compound content per 50 μmol of lipid was calculated by the following formula.
[formula] <Liposome Encapsulation Test of Example 7, Example 8 and Example 17> […]

Where [1] appears, read: Compound concentration when encapsulated 10 mg/mL.
[2] abbreviates: Compound concentration when encapsulated 15 mg/mL.

On to `CCN(C[C@@H]1CCCCN1)C(=O)Oc1cc(O)c2c(=O)cc(-c3ccccc3Cl)oc2c1[C@H]1CCN(C)C[C@H]1O` [Example 1, 2-(2-chlorophenyl)-5-hydroxy-8-[(3S,4R)-3-hydroxy-1-methylpiperidin-4-yl]-4-oxo-4H-1-benzopyran-7-yl ethyl{[(2S)-piperidin-2-yl]methyl}carbamate ditrifluoroacetate], for which the “encapsulation rate, encapsulation efficiency and encapsulated compound content per 50 μmol of lipid” value (“encapsulation rate … per 50 μmol of lipid” for short) is reported as “high”. Also, under setting [1], the “Encapsulated compound content per 50 μmol of lipid” value was 7.3 mg, the Encapsulation efficiency was 73.2% and the Encapsulation rate is reported as 82.9%.

In the case of `CCN(C[C@H]1CCCCN1)C(=O)Oc1cc(O)c2c(=O)cc(-c3ccccc3Cl)oc2c1[C@H]1CCN(C)C[C@H]1O` [Example 2, 2-(2-chlorophenyl)-5-hydroxy-8-[(3S,4R)-3-hydroxy-1-methylpiperidin-4-yl]-4-oxo-4H-1-benzopyran-7-yl ethyl{[(2R)-piperidin-2-yl]methyl}carbamate], the “encapsulation rate … per 50 μmol of lipid” value is listed as “high”. Further, under setting [1], the “Encapsulated compound content per 50 μmol of lipid” value is recorded as 7.1 mg, the Encapsulation efficiency is recorded as 71.1% and the Encapsulation rate came out at 81.1%.

`CN1CC[C@H](c2c(OC(=O)N(C)C[C@@H]3CCCCN3)cc(O)c3c(=O)cc(-c4ccccc4Cl)oc23)[C@H](O)C1` [Example 3, 2-(2-chlorophenyl)-5-hydroxy-8-[(3S,4R)-3-hydroxy-1-methylpiperidin-4-yl]-4-oxo-4H-1-benzopyran-7-yl methyl{[(2S)-piperidin-2-yl]methyl}carbamate]: the “encapsulation rate … per 50 μmol of lipid” value is listed as “high”. Also, under setting [2], the “Encapsulated compound content per 50 μmol of lipid” value stood at 6.0 mg, the Encapsulation efficiency was determined as 60.2% and the Encapsulation rate came out at 61.0%.

Consider `CN1CC[C@H](c2c(OC(=O)N(C)C[C@H]3CCCCN3)cc(O)c3c(=O)cc(-c4ccccc4Cl)oc23)[C@H](O)C1` [Example 4, 2-(2-chlorophenyl)-5-hydroxy-8-[(3S,4R)-3-hydroxy-1-methylpiperidin-4-yl]-4-oxo-4H-1-benzopyran-7-yl methyl{[(2R)-piperidin-2-yl]methyl}carbamate], for which the “encapsulation rate … per 50 μmol of lipid” value is “high”. Also, under setting [2], the “Encapsulated compound content per 50 μmol of lipid” value was found to be 7.1 mg, the Encapsulation efficiency is on record as 71.2% and the Encapsulation rate was 72.2%.

`CCCN(C[C@@H]1CCCCN1)C(=O)Oc1cc(O)c2c(=O)cc(-c3ccccc3Cl)oc2c1[C@H]1CCN(C)C[C@H]1O` [Example 5, 2-(2-chlorophenyl)-5-hydroxy-8-[(3S,4R)-3-hydroxy-1-methylpiperidin-4-yl]-4-oxo-4H-1-benzopyran-7-yl {[(2S)-piperidin-2-yl]methyl}propylcarbamate]: the “encapsulation rate … per 50 μmol of lipid” value was “high”. In addition, under setting [1], the “Encapsulated compound content per 50 μmol of lipid” value worked out at 7.2 mg, the Encapsulation efficiency stood at 71.6% and the Encapsulation rate is listed as 75.7%.

In the case of `CCCN(C[C@H]1CCCCN1)C(=O)Oc1cc(O)c2c(=O)cc(-c3ccccc3Cl)oc2c1[C@H]1CCN(C)C[C@H]1O` [Example 6, 2-(2-chlorophenyl)-5-hydroxy-8-[(3S,4R)-3-hydroxy-1-methylpiperidin-4-yl]-4-oxo-4H-1-benzopyran-7-yl {[(2R)-piperidin-2-yl]methyl}propylcarbamate], the “encapsulation rate … per 50 μmol of lipid” value is reported as “high”. Under setting [1], the “Encapsulated compound content per 50 μmol of lipid” value is on record as 6.6 mg, the Encapsulation efficiency came to 65.9% and the Encapsulation rate was 73.8%.

As to `CCN(CC1CCCCN1)C(=O)Oc1cc(O)c2c(=O)cc(-c3ccccc3Cl)oc2c1[C@H]1CCN(C)C[C@H]1O` (stereo partly drawn) [Example 7, 2-(2-chlorophenyl)-5-hydroxy-8-[(3S,4R)-3-hydroxy-1-methylpiperidin-4-yl]-4-oxo-4H-1-benzopyran-7-yl ethyl[(piperidin-2-yl)methyl]carbamate dihydrochloride], the “encapsulation rate … per 50 μmol of lipid” value is “high”. In addition, under setting [1], the “Encapsulated compound content per 50 μmol of lipid” value was found to be 7.3 mg, the Encapsulation efficiency stood at 72.8% and the Encapsulation rate is on record as 81.1%.

On to `CN1CC[C@H](c2c(OC(=O)N(C)CC3CCCCN3)cc(O)c3c(=O)cc(-c4ccccc4Cl)oc23)[C@H](O)C1` (stereo partly drawn) [Example 8, 2-(2-chlorophenyl)-5-hydroxy-8-[(3S,4R)-3-hydroxy-1-methylpiperidin-4-yl]-4-oxo-4H-1-benzopyran-7-yl methyl[(piperidin-2-yl)methyl]carbamate], for which the “encapsulation rate … per 50 μmol of lipid” value is on record as “high”. Also, under setting [1], the “Encapsulated compound content per 50 μmol of lipid” value amounted to 6.1 mg, the Encapsulation efficiency is recorded as 61.1% and the Encapsulation rate was found to be 60.6%.

`CCCN(CC1CCCCN1)C(=O)Oc1cc(O)c2c(=O)cc(-c3ccccc3Cl)oc2c1[C@H]1CCN(C)C[C@H]1O` (stereo partly drawn) [Example 9, 2-(2-chlorophenyl)-5-hydroxy-8-[(3S,4R)-3-hydroxy-1-methylpiperidin-4-yl]-4-oxo-4H-1-benzopyran-7-yl [(piperidin-2-yl)methyl]propylcarbamate]: the “encapsulation rate … per 50 μmol of lipid” value is listed as “high”. Besides, under setting [1], the “Encapsulated compound content per 50 μmol of lipid” value came out at 7.2 mg, the Encapsulation efficiency came to 72.1% and the Encapsulation rate is given as 78.5%.

On to `CC(C)N(CC1CCCCN1)C(=O)Oc1cc(O)c2c(=O)cc(-c3ccccc3Cl)oc2c1[C@H]1CCN(C)C[C@H]1O` (stereo partly drawn) [Example 10, 2-(2-chlorophenyl)-5-hydroxy-8-[(3S,4R)-3-hydroxy-1-methylpiperidin-4-yl]-4-oxo-4H-1-benzopyran-7-yl [(piperidin-2-yl)methyl]propan-2-ylcarbamate], for which, under setting [1], the “Encapsulated compound content per 50 μmol of lipid” value is 2.3 mg, the Encapsulation efficiency amounted to 23.0% and the Encapsulation rate amounted to 22.8%.

In the case of `CN1CC[C@H](c2c(OC(=O)N(CCF)CC3CCCCN3)cc(O)c3c(=O)cc(-c4ccccc4Cl)oc23)[C@H](O)C1` (stereo partly drawn) [Example 11, 2-(2-chlorophenyl)-5-hydroxy-8-[(3S,4R)-3-hydroxy-1-methylpiperidin-4-yl]-4-oxo-4H-1-benzopyran-7-yl (2-fluoroethyl) [(piperidin-2-yl)methyl]carbamate], under setting [1], the “Encapsulated compound content per 50 μmol of lipid” value was determined as 4.6 mg, the Encapsulation efficiency came to 46.1% and the Encapsulation rate came to 45.5%.

Regarding `COCCN(CC1CCCCN1)C(=O)Oc1cc(O)c2c(=O)cc(-c3ccccc3Cl)oc2c1[C@H]1CCN(C)C[C@H]1O` (stereo partly drawn) [Example 12, 2-(2-chlorophenyl)-5-hydroxy-8-[(3S,4R)-3-hydroxy-1-methylpiperidin-4-yl]-4-oxo-4H-1-benzopyran-7-yl (2-methoxyethyl) [(piperidin-2-yl)methyl]carbamate], under setting [1], the “Encapsulated compound content per 50 μmol of lipid” value worked out at 3.6 mg, the Encapsulation efficiency stood at 36.2% and the Encapsulation rate came out at 35.8%.

Consider `CN1CC[C@H](c2c(OC(=O)N(CCC(F)(F)F)CC3CCCCN3)cc(O)c3c(=O)cc(-c4ccccc4Cl)oc23)[C@H](O)C1` (stereo partly drawn) [Example 13, 2-(2-chlorophenyl)-5-hydroxy-8-[(3S,4R)-3-hydroxy-1-methylpiperidin-4-yl]-4-oxo-4H-1-benzopyran-7-yl [(piperidin-2-yl)methyl](3,3,3-trifluoropropyl)carbamate], for which, under setting [1], the “Encapsulated compound content per 50 μmol of lipid” value was 3.5 mg, the Encapsulation efficiency is on record as 34.6% and the Encapsulation rate is recorded as 35.2%.
